Laboratory results as given in patent US6589915B1, “Benzohetero cyclylcyclo hexenones and their use as herbicides” (BASF Aktiengesellschaft, priority 1999, dated 2003).

Experiments:
Assay type in all cases: in vivo
POLPE (ladysthumb) = test: greenhouse post-emergence herbicidal test
Excerpt: (§1) The seeds of the test plants were sown separately for each species. For the post-emergence treatment, the test plants were first, grown to a plant height of from 3 to 15 cm, depending on the plant habit, and only then treated with the active ingredients which had been suspended or emulsified in water. To this end, the test plants were either sown directly and grown in the same containers, or they were first grown separately as seedlings and transplanted into the test containers a few days prior to treatment. […] Depending on the species, the plants were kept at from 10 to 25° C., or 20 to 35° C., respectively. The test period extended over 2 to 4 weeks. During this time, the plants were tended, and their response to the individual treatments was evaluated. Evaluation was carried out using a scale of from 0 to 100. 100 means no emergence of the plants, or complete destruction of at least the aerial parts, and 0 means no damage, or normal course of growth. [table] The following experiments were performed by the post-emergence method.

ECHCG (barnyard grass) = test: greenhouse post-emergence herbicidal test
Excerpt: as §1

ABUTH (velvet leaf) = test: greenhouse post-emergence herbicidal test
Excerpt: as §1

[1] = system: CHEAL (lambsquarters (goosefoot)); test: greenhouse post-emergence herbicidal test
Excerpt: as §1

AMARE (redroot pigweed) = test: greenhouse post-emergence herbicidal test
Excerpt: as §1

IPOSS = test: greenhouse post-emergence herbicidal test
Excerpt: as §1, with “growth.” for “growth. [table]”

wheat = test: greenhouse post-emergence test, crop selectivity; details: 0.25 and 0.5 kg/ha (a.s.)
Excerpt: as §1

PHPBU = test: greenhouse post-emergence herbicidal test; details: 0.125 and 0.25 kg/ha (a.s.)
Excerpt: (§2) The seeds of the test plants were sown separately for each species. For the post-emergence treatment, the test plants were first, grown to a plant height of from 3 to 15 cm, depending on the plant habit, and only then treated with the active ingredients which had been suspended or emulsified in water. To this end, the test plants were either sown directly and grown in the same containers, or they were first grown separately as seedlings and transplanted into the test containers a few days prior to treatment. The rat e of application for the post-emergence treatment was 0.25 or 0.125 kg of a.s. (active substance)/ha. Depending on the species, the plants were kept at from 10 to 25° C., or 20 to 35° C., respectively. The test period extended over 2 to 4 weeks. During this time, the plants were tended, and their response to the individual treatments was evaluated. Evaluation was carried out using a scale of from 0 to 100. 100 means no emergence of the plants, or complete destruction of at least the aerial parts, and 0 means no damage, or normal course of growth. [table] The following experiments were performed by the post-emergence method.

SETFA (giant foxtail) = test: greenhouse post-emergence herbicidal test
Excerpt: as §1

[2] = system: GALAP (catchweed bedstraw); test: greenhouse post-emergence herbicidal test; details: 0.125 and 0.25 kg/ha (a.s.)
Excerpt: as §2

Cc1c(C(=O)C2=C(O)CCCC2=O)ccc2sc(C(C)C)nc12 [Example I-1a.408]
herbicidal action against POLPE (POLPE (ladysthumb); 0.125 and 0.25 kg/ha (a.s.)): good to very good
herbicidal action against ECHCG (ECHCG (barnyard grass); 0.125 and 0.25 kg/ha (a.s.)): good to very good
herbicidal action against ABUTH (ABUTH (velvet leaf); 0.125 and 0.25 kg/ha (a.s.)): good to very good
herbicidal action against CHEAL ([1]; 0.125 and 0.25 kg/ha (a.s.)): good to very good

Cc1c(C(=O)C2=C(O)CCCC2=O)ccc2scnc12 [Example I-1a.394]
herbicidal action against AMARE (AMARE (redroot pigweed); 0.25 and 0.5 kg/ha (a.s.)): very good
herbicidal action against POLPE (POLPE (ladysthumb); 0.25 and 0.5 kg/ha (a.s.)): very good
herbicidal action against CHEAL ([1]; 0.25 and 0.5 kg/ha (a.s.)): very good
herbicidal action against IPOSS (IPOSS; 0.25 and 0.5 kg/ha (a.s.)): very good
selectivity in wheat (wheat): selectivity

CCc1nc2c(C)c(C(=O)C3=C(O)C4CCC(C4)C3=O)ccc2s1 (centres unmarked) [Example I-1x.406]
herbicidal action against POLPE (POLPE (ladysthumb); 0.125 and 0.25 kg/ha (a.s.)): very good
herbicidal action against ECHCG (ECHCG (barnyard grass); 0.125 and 0.25 kg/ha (a.s.)): very good
herbicidal action against ABUTH (ABUTH (velvet leaf); 0.125 and 0.25 kg/ha (a.s.)): very good
herbicidal action against CHEAL ([1]; 0.125 and 0.25 kg/ha (a.s.)): very good

CSc1nc2c(C)c(C(=O)C3=C(O)C4CCC(C4)C3=O)ccc2s1 (centres unmarked) [Example I-1x.435]
herbicidal action against AMARE (AMARE (redroot pigweed); 0.0625 and 0.125 kg/ha (a.s.)): very good
herbicidal action against ECHCG (ECHCG (barnyard grass); 0.0625 and 0.125 kg/ha (a.s.)): very good
herbicidal action against CHEAL ([1]; 0.0625 and 0.125 kg/ha (a.s.)): very good

COCc1nc2c(C)c(C(=O)C3=C(O)C4CCC(C4)C3=O)ccc2s1 (centres unmarked) [Example I-1x.420]
herbicidal action against PHPBU (PHPBU): very good
herbicidal action against POLPE (POLPE (ladysthumb); 0.125 and 0.25 kg/ha (a.s.)): very good
herbicidal action against ECHCG (ECHCG (barnyard grass); 0.125 and 0.25 kg/ha (a.s.)): very good
herbicidal action against SETFA (SETFA (giant foxtail); 0.125 and 0.25 kg/ha (a.s.)): very good
herbicidal action against CHEAL ([1]; 0.125 and 0.25 kg/ha (a.s.)): very good

CCc1nc2c(C)c(C(=O)C3=C(O)CCCC3=O)ccc2o1 [Example I-2a.406]
herbicidal action against GALAP [2]: good
herbicidal action against AMARE (AMARE (redroot pigweed); 0.125 and 0.25 kg/ha (a.s.)): very good
herbicidal action against ABUTH (ABUTH (velvet leaf); 0.125 and 0.25 kg/ha (a.s.)): very good
herbicidal action against CHEAL ([1]; 0.125 and 0.25 kg/ha (a.s.)): very good
herbicidal action against IPOSS (IPOSS; 0.125 and 0.25 kg/ha (a.s.)): very good

CCc1nc2c(C)c(C(=O)C3=C(O)C4CCC(C4)C3=O)ccc2o1 (centres unmarked) [Example I-2x.406]
herbicidal action against POLPE (POLPE (ladysthumb); 0.0625 and 0.125 kg/ha (a.s.)): good to very good
herbicidal action against ECHCG (ECHCG (barnyard grass); 0.0625 and 0.125 kg/ha (a.s.)): good to very good
herbicidal action against ABUTH (ABUTH (velvet leaf); 0.0625 and 0.125 kg/ha (a.s.)): good to very good
herbicidal action against CHEAL ([1]; 0.0625 and 0.125 kg/ha (a.s.)): good to very good

Cc1c(C(=O)C2=C(O)C3CCC(C3)C2=O)ccc2sc(Oc3ccccc3F)nc12 (centres unmarked) [Example I-1x.790]
herbicidal action against POLPE (POLPE (ladysthumb); 0.125 and 0.25 kg/ha (a.s.)): very good
herbicidal action against ECHCG (ECHCG (barnyard grass); 0.125 and 0.25 kg/ha (a.s.)): very good
herbicidal action against SETFA (SETFA (giant foxtail); 0.125 and 0.25 kg/ha (a.s.)): very good
herbicidal action against CHEAL ([1]; 0.125 and 0.25 kg/ha (a.s.)): very good

Cc1c(C(=O)C2=C(O)CC(C)(C)CC2=O)ccc2sc(Cl)nc12 [Example I-1c.396]
herbicidal action against AMARE (AMARE (redroot pigweed); 0.25 and 0.5 kg/ha (a.s.)): good to very good
herbicidal action against ECHCG (ECHCG (barnyard grass); 0.25 and 0.5 kg/ha (a.s.)): good to very good
herbicidal action against SETFA (SETFA (giant foxtail); 0.25 and 0.5 kg/ha (a.s.)): good to very good
herbicidal action against CHEAL ([1]; 0.25 and 0.5 kg/ha (a.s.)): good to very good
